Molecular target: EGFR (human) (UniProt P00533)
Conditions: A431

Chain of EGFR (human) (P00533 whole entry, looked up): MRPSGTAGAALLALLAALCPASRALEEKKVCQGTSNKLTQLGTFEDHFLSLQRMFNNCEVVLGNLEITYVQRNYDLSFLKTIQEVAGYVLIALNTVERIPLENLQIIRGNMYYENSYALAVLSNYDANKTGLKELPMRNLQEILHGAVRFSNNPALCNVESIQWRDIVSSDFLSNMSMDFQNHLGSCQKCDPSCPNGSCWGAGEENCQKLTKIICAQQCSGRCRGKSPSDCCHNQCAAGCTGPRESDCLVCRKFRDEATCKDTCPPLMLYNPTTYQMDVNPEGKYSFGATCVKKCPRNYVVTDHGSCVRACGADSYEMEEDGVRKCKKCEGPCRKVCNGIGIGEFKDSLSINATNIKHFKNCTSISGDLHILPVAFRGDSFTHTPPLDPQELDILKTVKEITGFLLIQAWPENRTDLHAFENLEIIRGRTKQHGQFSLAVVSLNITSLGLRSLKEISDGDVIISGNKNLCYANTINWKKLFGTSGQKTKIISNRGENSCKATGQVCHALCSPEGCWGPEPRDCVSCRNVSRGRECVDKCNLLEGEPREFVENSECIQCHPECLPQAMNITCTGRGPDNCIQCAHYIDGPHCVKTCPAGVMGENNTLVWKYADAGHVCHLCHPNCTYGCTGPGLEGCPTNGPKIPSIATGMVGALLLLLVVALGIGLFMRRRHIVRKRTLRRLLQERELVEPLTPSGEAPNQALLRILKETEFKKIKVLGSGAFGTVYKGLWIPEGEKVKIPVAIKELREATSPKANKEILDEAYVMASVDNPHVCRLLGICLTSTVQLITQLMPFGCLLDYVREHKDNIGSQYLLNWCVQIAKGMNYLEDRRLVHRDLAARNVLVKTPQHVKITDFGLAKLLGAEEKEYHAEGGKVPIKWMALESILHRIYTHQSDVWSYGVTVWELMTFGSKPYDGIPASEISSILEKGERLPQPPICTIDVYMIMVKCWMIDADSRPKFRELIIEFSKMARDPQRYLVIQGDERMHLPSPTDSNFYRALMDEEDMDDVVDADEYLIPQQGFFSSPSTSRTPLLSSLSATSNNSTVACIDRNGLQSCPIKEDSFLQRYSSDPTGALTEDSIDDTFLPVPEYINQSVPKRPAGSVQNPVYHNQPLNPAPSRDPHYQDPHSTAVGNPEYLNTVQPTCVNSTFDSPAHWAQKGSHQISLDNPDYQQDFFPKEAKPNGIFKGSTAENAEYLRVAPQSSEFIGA

| IC50 [µM] | Structure (SMILES) |
| --- | --- |
| > 10 | C[C@H](Nc1ncnc2ccccc12)c1ccccc1 |
| > 100 | C[C@H](Nc1[nH]cnc2c3ccccc3nc1-2)c1ccccc1 |
| 0.086 | C[C@@H](Nc1ncnc2ccccc12)c1ccccc1 |
| 0.01 to 0.05 | C[C@@H](Nc1nc[nH]c2nc(-c3ccccc3)cc1-2)c1ccccc1 |

Molecular target: EGFR (UniProt P00533)
Conditions: not given

Chain of EGFR (P00533 whole entry, looked up): as above

| IC50 [µM] | Structure (SMILES) |
| --- | --- |
| 0.026 | Nc1ccc(-c2cc3c(N4CCCc5ccccc54)ncnc3[nH]2)cc1 |
| 0.21 | Nc1ccc(-c2cc3c(N4CCc5ccccc54)ncnc3[nH]2)cc1 |

More lines, now with the values behind:

| Structure (SMILES) | IC50 [µM] |
| --- | --- |
| Cc1[nH]c2ncnc(N3CCc4ccccc43)c2c1C | 1.56 |
| Cc1[nH]c2ncnc(N3CCCc4ccccc43)c2c1C | 2.69 |

Molecular target: EGFR (mouse) (UniProt P00533)
Conditions: mk

| IC50 [µM] | Structure (SMILES) |
| --- | --- |
| 45.2 | COc1cc(O)c2c(=O)c(-c3cccc(Cl)c3)coc2c1 |
| 11.4 | COc1cc(O)c2c(=O)c(-c3cccc(Cl)c3)c[nH]c2c1 |
| 2.83 | COc1cc(O)c2c(=O)c(-c3cccc(Cl)c3)cn(C)c2c1 |
| 4.93 | COc1cc(O)c2c(=O)c(-c3cccc(Cl)c3)cn(CCc3ccccc3)c2c1 |

Molecular target: EGFR (murine) (UniProt P00533)
Sequence (P00533 whole entry, looked up): as above
Conditions: nih3t3

| IC50 [µM] | Structure (SMILES) |
| --- | --- |
| > 100 | Cc1nocc1C(=O)Nc1ccc(C(F)(F)F)cc1 |
| > 100 | Cc1n[nH]cc1C(=O)Nc1ccc(C(F)(F)F)cc1 |
| > 100 | Cc1noc(C)c1C(=O)Nc1ccc(C(F)(F)F)cc1 |
| > 100 | Cc1oncc1C(=O)Nc1ccc(C(F)(F)F)cc1 |

Molecular target: EGFR (murine) (UniProt P00533)
Conditions: nih3t3
Remark: another data set of the same source

| Structure (SMILES) | IC50 [µM] |
| --- | --- |
| COc1cc2ncnc(Nc3cccc(C#N)c3)c2cc1OC | 0.2 |
| COc1cc2ncnc(Nc3cccc(C(F)(F)F)c3)c2cc1OC | < 0.006 |
| Cc1ccc2ncnc(Nc3cccc(C(F)(F)F)c3)c2c1 | 0.9 |

Molecular target: EGFR (Balb/c mice) (UniProt P00533)
Conditions: not given

| Structure (SMILES) | LD50 [mg/kg] |
| --- | --- |
| COc1cc2ncnc(Nc3cccc(C#N)c3)c2cc1OC | > 153 |
| Cc1ccc2ncnc(Nc3cccc(C(F)(F)F)c3)c2c1 | > 400 |

Same assay, conditions: dose or concentration not given here

| Structure (SMILES) | toxicity [%] |
| --- | --- |
| COc1cc2ncnc(Nc3cccc(C(F)(F)F)c3)c2cc1OC | 40 |

Molecular target: EGFR (UniProt P00533)
Conditions: not given
Remark: another data set of the same source

| IC50 [µM] | Structure (SMILES) |
| --- | --- |
| 0.3 | c1ccc2c(Nc3ccc4[nH]ccc4c3)ncnc2c1 |
| 10 | COc1cc2ncnc(Nc3ccc4c(ccn4Cc4ccccc4)c3)c2cc1OC |
| 0.003 | COc1cc2ncnc(Nc3ccc4[nH]ccc4c3)c2cc1OC |

Molecular target: EGFR (murine) (UniProt P00533)
Conditions: nih 3t3

| IC50 [µM] | Structure (SMILES) |
| --- | --- |
| > 100 | CCOC(=O)Nc1nc2ccc(Oc3ccccc3)nc2[nH]1 |

Molecular target: EGFR (human) (UniProt P00533)
Conditions: not given

| IC50 [µM] | Structure (SMILES) |
| --- | --- |
| 0.0015 | O=C(/C=C/CN1CC2CC1CO2)Nc1cc2c(Nc3ccc(F)c(Cl)c3)ncnc2cc1OCC1CC1 (stereo unspecified) |
| 0.0005 | O=C(/C=C/CN1CC2CC1CO2)Nc1cc2c(Nc3ccc(F)c(Cl)c3)ncnc2cc1O[C@H]1CCOC1 (stereo partly specified) |
| 0.0005 | O=C(/C=C/N1CC2CC1CO2)Nc1cc2c(Nc3ccc(F)c(Cl)c3)ncnc2cc1O[C@H]1CCOC1 (stereo partly specified) |
| 0.0005 | O=C(/C=C/CN1CC2CC1CO2)Nc1cc2c(Nc3ccc(F)c(Cl)c3)ncnc2cc1OC1CCCC1 (stereo unspecified) |

Molecular target: EGFR (UniProt P00533)
Conditions: not given
Remark: another data set of the same source

| IC50 [µM] | Structure (SMILES) |
| --- | --- |
| 0.156 | CN(C(=O)NCCCl)c1ccc2ncnc(Nc3cccc(Br)c3)c2c1 |
| 1.69 | Cc1cccc(Nc2ncnc3ccc(N(C)C(=O)NCCCl)cc23)c1 |
| 1 | Cc1cccc(Nc2ncnc3ccc(N)cc23)c1 |
| 0.081 | CN(C(=O)NCCCl)c1ccc2ncnc(Nc3cccc(Cl)c3)c2c1 |

Molecular target: EGFR (human) (UniProt P00533)
Conditions: kb

| IC50 [µM] | Structure (SMILES) |
| --- | --- |
| 0.015 | COc1cc2ncnc(Nc3ccc(F)c(Cl)c3F)c2cc1OC1CCN(C(=O)OCCN2CCCC2)CC1 |
| 0.009 | COc1cc2ncnc(Nc3cccc(Cl)c3F)c2cc1OC1CCN(C(=O)OCCN2CCCC2)CC1 |
| 0.035 | COC(=O)N1CCC(Oc2cc3c(Nc4cccc(Cl)c4F)ncnc3cc2OC)CC1 |

Molecular target: EGFR (human) (UniProt P00533)
Conditions: a431

| EC50 [µM] | Structure (SMILES) |
| --- | --- |
| 0.013 | COCCOc1cc2ncnc(Nc3ccc4[nH]ccc4c3)c2cc1NC(=O)C=C1CCNCC1 |
| 0.16 | CCOc1cc2ncc(C#N)c(Nc3ccc(OCc4ccccn4)c(Cl)c3)c2cc1NC(=O)C=C1CCNCC1 |

Further lines, the molecule ahead of its results:

| Structure (SMILES) | EC50 [µM] |
| --- | --- |
| O=C(C=C1CCNCC1)Nc1ccc2ncnc(Nc3ccc4[nH]ccc4c3)c2c1 | 0.3 |
| O=C(C=C1CCNC1)Nc1ccc2ncnc(Nc3cccc(Br)c3)c2c1 | 13 |

Molecular target: EGFR (human) (UniProt P00533)
Conditions: a431
Remark: another data set of the same source

| IC50 [µM] | Structure (SMILES) |
| --- | --- |
| > 50 | COc1ccc(OC)c(Cc2cc3c(NC4C=C(Br)C=CC4)nc(N)nc3[nH]2)c1 (stereo unspecified) |

Molecular target: EGFR (human) (UniProt P00533)
Conditions: not given
Remark: another data set of the same source

| IC50 [µM] | Structure (SMILES) |
| --- | --- |
| 13 | O=C1C2=C(C(=O)c3c(O)ccc(O)c31)[C@@H](O)[C@@H](O)[C@@H](O)C2 |
| 15 | O=C1C(CO)=C(CO)C(=O)c2c(O)ccc(O)c21 |
| 0.0023 | CC(C)(C)NC(=O)c1cccc(Oc2ccc(Nc3ncnc4ccn(CCO)c34)cc2Cl)c1 |
| 0.036 | O=C(O)C1=Cc2c(Cl)ncnc2NCC1 |

Source: the Kinase Knowledgebase extract (Sharma et al. 2016)
